{
  "source": "paper PMC4791286",
  "about": "“Puquitinib mesylate, an inhibitor of phosphatidylinositol 3-kinase p110δ, for treating relapsed or refractory non-Hodgkin's lymphoma” (Oncotarget, 2015)",
  "origin": "cited, not measured here",
  "test_system": "advanced solid tumors",
  "conditions": "human, in vivo; cited from earlier work",
  "data": [
    {"smiles": "C=CCN(/C=C1/C(=O)O[C@H](COC)[C@@]2(C)C1=C(O)C(=O)C1=C2[C@H](OC(C)=O)C[C@]2(C)C(=O)CC[C@@H]12)CC=C", "note": "[PX866]", "values": [
      {"measurement": "Grade 3 AST abnormalities", "value": "2 of 84 patients"}
    ]}
  ]
}
